Results published in US5547958A, “N-(8α-ergolinyl)-amides” (Schering Aktiengesellschaft, priority 1989, dated 1996).

Test system: behavior stereotypes on rats (masticatory, licking, or gnawing movements)
Assay: Stereotype-releasing effectiveness on rats 1 hour after i.p. pretreatment (dopamine agonistic action)
Format: in vivo
Conditions: probit analysis, n = 8; for ED50 (effective dose, stereotype-releasing effectiveness): 60th-62nd min p.i.
Description: The dopamine agonistic action was determined according to Horowski, R. and Wachtel, H. Eur. J. Pharmaz. col. 36: 373-383, 1976. One hour after i.p. pretreatment with test substance or vehicle, the presence of behavior stereotypes on rats (masticatory, licking, or gnawing movements) was determined for 2 minutes (60th-62nd min. p.i.).
Stereotype-releasing effectiveness on rats 1 hour
after i.p. pretreatment. Effective doses (ED50) with 95%
confidence limit were determined with the help of probit

Compound | ED50 (effective dose, stereotype-releasing effectiveness) | 95% Confidence Limit of ED50
CCCN1CC(NC(=S)SC)C[C@@H]2c3cccc4[nH]c(C)c(c34)C[C@H]21 (stereo partly shown) [A, N(2-methyl-6-n-propyl-8ergolinyl)-dithiocarbamic acid methyl ester] | 0.080 | 0.010-0.170
CCCN1CC(NC=S)C[C@@H]2c3cccc4[nH]c(C)c(c34)C[C@H]21 (stereo partly shown) [B, N(2-methyl-6-n-propyl-8ergolinyl)-thioformamide] | 0.050 | 0.034-0.079
